Results from patent US20200291082A1, “PREVENTION AND TREATMENT OF GRAFT-VERSUS-HOST-DISEASE WITH DEFENSINS” (priority 2017, published 2020).
No end group written: not given here.

Legend:
[1] = system: Trinitrobenzene Sulfonic Acid induced colitis; experiment: prophylactic murine 8-day Trinitrobenzene Sulfonic Acid induced colitis model (Example 3); format: in vivo, BALB/cByJ mice
Experimental: Anti-inflammatory effect of s.c. administration of hBD2 versus s.c. prednisolone in a prophylactic murine, 8-day Trinitrobenzene Sulfonic Acid induced colitis model.
105 male BALB/cByJ mice housed in groups of five per cage were allocated to 7 different treatment groups. Colitis was induced by intracolonic administration of trinitrobenzene sulfonic acid on day 0 under light anaesthesia resulting in significant inflammation and injury of the colonic tissue. The animals were treated with hBD2 at four different dosing levels once daily (1 mg/kg, 0.3 mg/kg, 0.1 mg/kg, and 0.03 mg/kg) or Prednisolone 10 mg/kg once daily dosed subcutaneously under the dorsal skin or PBS as vehicle for 7 days.
A disease activity index (DAI) scoring system was applied for clinical assessment (FIG. 7). The animals were sacrificed on day 10 and colon removed for histological assessment employing a histological scoring system (FIG. 8).

[2] = system: house dust mite driven model of allergic asthma; experiment: prophylactic intranasal versus oral hBD2 in murine house dust mite driven model of allergic asthma (Example 9); format: in vivo, BALB/c mice
Experimental: To determine and assess the efficacy of prophylactic treatment with intranasal (IN) versus oral defensins in a murine house dust mite driven model of allergic asthma.
Treatment regime: Female 7-10 weeks old BALB/c mice were randomly allocated into 5 study groups one day prior to study start and subcutaneously (SC) sensitized to house dust mite (100 μg HDM in 200 μL saline plus Freund's complete adjuvant in 0.9% saline). The mice were treated with hBD2 orally and intranasally respectively at a dose of 1.2 mg/kg/day (0.4 mg/kg TID) starting on day 12 in the morning and continued TID at approximately 6 hours intervals. The last dose was administered on day 14 one hour prior to challenge. The total number of doses were […] hBD2. Mice were then intranasally (IN) challenged with HDM on day 14 (HDM 25 μg in 50 μL of saline) (FIG. 4).
Airway inflammation: At 48 hours post challenge, bronchoalveolar lavage was performed washing the lungs with 3 volumes of cold PBS (0.4; 0.3 and 0.3 mL, total 1 mL). Total and differential leucocyte cell counts were determined on an automated haematological analyser Sysmex XT-2000iV.
Lung function: Starting 48 hours after HDM challenge, measurements of lung resistance and lung compliance were carried out after methacholine challenge (3.125 MCH1; 6.25 MCH2; 12.5 MCH3 and 25 mg/mL MCH4) by anaesthetized, cannulated mice using DSI's Buxco Finepoint RC system. Data are represented as airway resistance at […] methacholine and as dose responsive curves.
Lung sampling for cytokine analysis: After completion of every BAL, lungs were removed from the thorax, snap frozen in liquid nitrogen and stored frozen at −80 degrees Celsius until analysis of cytokine concentration of TNF-α, IL-4, IL-5, IL-6, IL-9, IL-13 and IL-33 in lung homogenate by ELISA.

[3] = system: house dust mite model of allergic asthma; experiment: therapeutic intranasal versus oral hBD2 in murine house dust mite model of allergic asthma, lung histopathology and cytokines (Example 11); format: in vivo, BALB/c mice
Experimental: To determine and assess the efficacy of IN versus oral therapeutic intervention with administration of defensins in a murine house dust mite model of allergic asthma.
Treatment regime: Female 7-10 weeks old BALB/c mice randomly allocated into 4 study groups one day prior to study start were subcutaneously (SC) sensitized to house dust mite (100 μg HDM in 200 μL saline plus Freund's complete adjuvant in 0.9% saline). Mice were intranasally (IN) challenged with HDM on day 14 (HDM 25 μg in 50 μL of saline). hBD2 was administered IN or orally (0.4 mg/kg TID IN; 0.4 mg/kg TID orally, 50 μL phosphate buffered saline) on day 14. The initial dose was administered 60 minutes prior to challenge, and the subsequent doses approximately 6 hours apart.
Lung tissue sampling: Lungs were removed from the thorax, snap frozen in liquid nitrogen and stored frozen at −80 degrees Celsius until analysis of cytokine concentration of IL-4, IL-5, IL-8 (KC), IL-9 and IL-13 in lung homogenate by ELISA. Lungs were inflated in situ in 10% buffered formalin, removed from thorax, placed individually in 10% buffered formalin, paraffin embedded in toto, sectioned and H&E/PAS stained.
Blood sampling: All terminal blood samples were collected via jugular vein bleeds. Blood was sampled to Li-heparin tubes, put on ice and immediately centrifuged at 4° C. Plasma was separated and stored at -80° C. until the potential SCFA analysis. Lung tissue sampling: The lungs were exposed and excised by gently opening the thorax and by cutting down either side of the sternum and ribs and trimming back. Lungs from the first 6 animals per group were removed from thorax, snap frozen in liquid nitrogen and stored frozen at −80° C. until analysis of cytokine concentration by ELISA.
Lungs from the other 8 animals per group were inflated in situ with 10% buffered formalin, removed from thorax, placed individually in 10% buffered formalin, paraffin embedded in toto, sectioned and H&E/PAS stained. The paraffin blocks were retained for the IHC analysis.
Read-Outs • Histopathology (H&E; PAS) (N=8/group; total N=32) • Cytokines in lung tissue homogenates (IL-4, IL-5, IL-8 (KC), IL-9 and IL-13) (N=6/group; total N=24)
Cellular influx (mononuclears, eosinophils, neutrophils) was assessed semi-quantitatively on H&E stained slides separately for peri-bronchial/bronchiolar and perivascular space as follows: • 0 absent • 1 few scattered inflammatory cells • 2 larger aggregates • 3 marked accumulation of cells
Overall score for inflammation was calculated as the sum of all individual scores.

[4] = hBD2 both oral and intranasal TID, day 12 to day 14 (total 2.0 mg/kg in 8 administrations), versus HDM challenged vehicle
[5] = intranasally administered, not statistically significantly different from the control

human beta defensin 2 (GIGDPVTCLKSGAICHPVFCPRRYKQIGTCGLPGTKCCKKP; not fully specified (bridges); ends and bridges not checked; listed as Homo sapiens) [hBD2]
histological score ([1]; FIG. 13, 0.03 and 0.1 mg/kg hBD2 (Group E and F), on par with prednisolone 10 mg/kg): statistical significant effect | histological score ([1]; Prednisolone 10 mg/kg s.c. once daily, hBD2 at 0.1, 0.3 and 1 mg/kg s.c. once daily): highly statistically significant clinical effect on histological score | body weight ([1]; hBD2 0.03 and 0.1 mg/kg OD s.c.): highly statistically significant increase in body weight | airway resistance [2, 4]: effectively inhibited the increase of airway resistance | pulmonary compliance [2, 4]: effectively inhibited | IL-4 in lung tissue homogenates [2, 5]: trend towards lowering | IL-5 in lung tissue homogenates [2, 5]: trend towards lowering | IL-6 in lung tissue homogenates [2, 5]: trend towards lowering | IL-9 in lung tissue homogenates [2, 5]: trend towards lowering | IL-13 in lung tissue homogenates [2, 5]: trend towards lowering | TNF-α in lung tissue homogenates [2, 5]: trend towards lowering | IL-4 concentration in lung tissue homogenates ([2]; oral administration): complete normalization of cytokine concentrations | IL-6 concentration in lung tissue homogenates ([2]; oral administration): complete normalization of cytokine concentrations | IL-9 concentration in lung tissue homogenates ([2]; oral administration): complete normalization of cytokine concentrations | IL-13 concentration in lung tissue homogenates ([2]; oral administration): complete normalization of cytokine concentrations | L-5 (31c) concentration in lung tissue homogenates ([2]; oral administration): complete normalization of cytokine concentrations | TNF-α concentration in lung tissue homogenates ([2]; oral administration): complete normalization of cytokine concentrations | neutrophil counts in BALF ([2]; oral application): significantly inhibited neutrophil counts | IL-9 level in lung tissue homogenates ([3]; IN administration): Significant effects | IL-13 level in lung tissue homogenates ([3]; IN administration): Significant effects | histological inflammation of lung tissue ([3]; hBD2 both oral and intranasal 0.4 mg/kg TID on day 14, versus HDM challenged vehicle): effectively inhibited the increase in histological inflammation of lung tissue | IL-4 level in lung tissue homogenates ([3]; oral administration): Significant effects | IL-9 level in lung tissue homogenates ([3]; oral administration): Significant effects | IL-13 level in lung tissue homogenates ([3]; oral administration): Significant effects
